Data taken from patent US7794964B2, “Biochip for the detection of phosphorylation and the detection method using the same” (Korea Atomic Energy Research Institute, priority 2008, dated 2010).

Key:
PKC (Protein Kinase C) = assay: Phosphorylation of PKC substrate on biochip using [γ-32P]ATP; format: biochemical; settings: 0.3 mg/ml substrate on aldehyde treated slide glass; 10 unit/ml PKC; 0.1 μCi/μl [γ-32P]ATP; BSA negative control
Procedure: (§1) To fix substrate on the aldehyde-treated slide glass (Nuricell Inc., Korea), 0.1 mg/ml of the Mep45-kinase substrate fusion protein or 1.25 μg/ml of peptide substrate (Promega, Madison, Wis.) was integrated. Particularly, the recombinant Mep45-kinase substrate fusion protein solution (10% glycerol, PBS, pH 7.5) was prepared at the concentration of 0.1 mg/ml, and this substrate solution was integrated on the aldehyde-treated slide glass at the spot intervals of 300 μm by using microarray device (Genetix Ltd, UK). The size of the spot was regulated to be 300 μm. The integrated biochip was reacted in a humid chamber at room temperature for one hour, leading to fixation.
(§2) The biochip constructed in Example 2 was washed three times with PBS (200 mM NaCl, 3 mM KCl, 2 mM KH2PO4, 1 mM Na2HPO4, pH 7.5), followed by reaction of the kinase and substrate on the chip. Particularly, the chip was washed with kinase buffer (40 mM Tris-HCl, 20 mM MgCl2, 0.1 mg/ml BSA, pH 7.5) once. […]
0.3 mg/ml of AAKIQASFRGHMARKK (SEQ. ID. NO: 1) and Mep45 fusion substrate were integrated on the aldehyde treated slide glass, followed by phosphorylation using 10 unit/ml of PKC and 0.1 μCi/μl of [γ-^32P]ATP. Phosphorylation was measured by using X-ray film or X-ray fluorescence spectrometer. […]

cdc2 protein kinase = cdc2 protein kinase (Homo sapiens, UniProt P06493); assay: Phosphorylation of cdc2 protein kinase substrate on biochip using [γ-32P]ATP; format: biochemical; settings: 1.0 mg/ml substrate on aldehyde treated slide glass; 10 unit/ml cdc2 protein kinase; 0.1 μCi/μl [γ-32P]ATP; BSA negative control
Chain of cdc2 protein kinase (P06493 whole entry): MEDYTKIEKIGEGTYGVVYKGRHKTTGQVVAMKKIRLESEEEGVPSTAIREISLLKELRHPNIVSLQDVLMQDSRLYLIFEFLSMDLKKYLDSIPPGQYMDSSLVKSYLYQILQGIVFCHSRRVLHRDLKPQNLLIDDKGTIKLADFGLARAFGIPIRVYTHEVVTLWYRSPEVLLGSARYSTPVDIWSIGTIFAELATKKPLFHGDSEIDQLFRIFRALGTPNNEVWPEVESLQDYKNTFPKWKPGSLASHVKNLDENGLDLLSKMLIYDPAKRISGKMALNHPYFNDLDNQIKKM
Chain of cdc2 protein kinase (P14635 whole entry partner): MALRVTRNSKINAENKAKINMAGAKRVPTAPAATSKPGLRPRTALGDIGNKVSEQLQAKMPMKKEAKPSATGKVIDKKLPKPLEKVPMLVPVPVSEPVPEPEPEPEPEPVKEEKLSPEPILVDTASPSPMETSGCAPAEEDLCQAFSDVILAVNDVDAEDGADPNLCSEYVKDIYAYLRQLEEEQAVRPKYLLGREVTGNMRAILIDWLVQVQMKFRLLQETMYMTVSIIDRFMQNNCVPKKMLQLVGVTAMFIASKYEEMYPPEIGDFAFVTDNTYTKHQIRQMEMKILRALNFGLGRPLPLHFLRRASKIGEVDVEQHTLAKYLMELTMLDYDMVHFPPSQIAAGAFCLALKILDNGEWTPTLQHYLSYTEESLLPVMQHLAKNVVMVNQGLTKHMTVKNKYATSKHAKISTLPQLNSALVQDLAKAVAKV
Procedure: as §1, §2
1.0 mg/ml of PKTPKKAKKL (SEQ. ID. NO: 2) and Mep45 fusion substrate were integrated on the aldehyde treated slide glass, followed by phosphorylation using 10 unit/ml of cdc2 protein kinase and 0.1 μCi/μl of [γ-^32P]ATP. Phosphorylation was measured by using X-ray film or X-ray fluorescence spectrometer. […]

Sequence | phosphorylation signal on the spot (X-ray film or X-ray fluorescence spectrometer) (PKC (Protein Kinase C)) | phosphorylation signal on the spot (X-ray film or X-ray fluorescence spectrometer) (cdc2 protein kinase)
AAKIQASFRGHMARKK (Protein Kinase C substrate) [peptide substrate for PKC (Protein Kinase C)] | clear signal was detected | –
PKTPKKAKKL (cdc2 Protein Kinase substrate) [peptide substrate for cdc2-PK (cdc2 Protein Kinase)] | – | clear signal was detected
